Reference: US20190314311A1, “PHARMACEUTICAL COMPOSITION” (JAPAN SCIENCE AND TECHNOLOGY AGENCY, priority 2016, published 2019)

Key:
Type in all cases: biochemical
[1] = system: abnormally expanded PolyQ protein; assay: in vitro screening assay of abnormally expanded PolyQ protein aggregation by the turbidity method; conditions: screening of PolyQ aggregation inhibiting compounds
Text: The present inventors established an in vitro screening assay system capable of conveniently evaluating the aggregation of abnormally expanded PolyQ protein by the turbidity method (U.S. Pat. No. 6,632,616).

[2] = system: Thio-Q62 protein; assay: protein aggregation turbidity assay; conditions: 10 μM thio-Q62, PBS, 37° C.; arginine 100, 200 or 400 mM; proline 400 mM; Thio-Q62 alone = 100%
Protocol: In the subsequent experiments, the protein aggregation turbidity assay was performed by the method described in Non-Patent Document 6. Specifically, it was performed as follows.
(§1) A solution in which abnormally expanded proteins were dissolved in physiological saline phosphate (PBS) was used as a measurement sample. The solution was incubated at 37° C., and turbidity at 405 nm was measured every 24 hours using a microplate reader “Spectramax Plus plate reader” (Molecular Devices Inc.).
As an abnormally expanded PolyQ protein, a Thioredoxin-Q62 (Thio-Q62) fusion protein consisting of Thioredoxin and a PolyQ stretch with 62 glutamines was used.
As a control, Thio-Q62 protein alone was incubated in the same manner, and the turbidity was measured every 24 hours.
As controls, a solution containing Thio-Q62 protein alone, and a solution containing Thio-Q62 protein and 400 mM proline were incubated in the same manner, respectively, and turbidity was measured after 5 days. […] The relative turbidity (%) of each solution was measured. The turbidity of the solution containing Thio-Q62 protein alone was set to 100%. In the figure, values represent means±SEM (n=3). “*” represents p<0.05, “***” represents p<0.001, “n.s.” represents not significant.

[3] = system: Thio-Q62 protein; assay: seed-induced polyQ aggregation reaction (turbidity); conditions: 10 μM Thio-Q62 + seeds, 400 mM arginine or proline, 37° C., 7 days
Protocol: as §1

Question: For `O=C(O)[C@@H]1CCCN1` [proline, reference compound], which “PolyQ aggregation inhibitory activity” value [1] is on record?
Answer: The value was “no PolyQ aggregation-inhibitory effect”.

Question: What about the “relative turbidity after 5 days” value [2] of the same compound?
Answer: The value was “did not exert any anti-aggregation effect”.

Question: And the “seed-induced increase in turbidity” value [3]?
Answer: Its value is “the effects as observed with arginine was not obtained”.
